The values below come from patent US20130245275A1, “PHENYL DIAMIDES AND A PHARMACEUTICAL PREPARATION COMPRISING PHENYL DIAMIDES” (Rheinische Friedrich-Wilhelms Universitaet Bonn, priority 2010, published 2013).

Assay [1] deals with T1, sec7-domain of cytohesin-2 (ARNO) (Homo sapiens, UniProt Q99418).
T1 construct: ARNO-Sec7 (amino acids 50-255 of ARNO) were expressed in Escherichia coli; made in house; host or cells: Escherichia coli
T1 sequence (Q99418 50-255): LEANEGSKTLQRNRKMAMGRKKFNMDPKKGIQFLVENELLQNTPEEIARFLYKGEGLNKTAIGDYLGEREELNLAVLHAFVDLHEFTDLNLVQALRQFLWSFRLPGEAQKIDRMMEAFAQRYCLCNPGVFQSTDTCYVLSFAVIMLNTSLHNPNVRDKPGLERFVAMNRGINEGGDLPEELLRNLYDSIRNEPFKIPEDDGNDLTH
In words: guanine nucleotide exchange assay (GDP/GTP exchange on [Δ17]ARF1, tryptophan fluorescence). In kind it is biochemical. The note with it: isolated Sec-7 domain, each experiment at least 8 times, read-out: IC50 values measured for the isolated Sec-7 domain of cytohesin-2. The method, then: The inhibition of the exchange activity of the sec7-domain of cytohesin-2 (ARNO) of the phenyl diamides according to formulas (5) to (18) was determined by a guanine nucleotide exchange assay.
The sec7-domain of cytohesin-2 (ARNO) and [Δ17]ARF1, a mutant of the ADP-ribosylation factor (ARF) protein, were subcloned into pET15 vectors (Novagen) as described in Hafner, M. et al. Nature 444, 941-944 (2006). N-terminal truncated [Δ17]ARF1 (amino acids 18-181), lacking the first 17 amino acids and ARNO-Sec7 (amino acids 50-255 of ARNO) were expressed in Escherichia coli and purified by Ni-NTA chromatography (Ni-NTA agarose, Qiagen).
The exchange from […] (GDP) to […] (GTP) induces a conformation change of the ribosylation factor, as a result of which the fluorescence of a tryptophan radical of the protein is increased. GDP/GTP exchange was measured on [Δ17]ARF1 by tryptophan fluorescence because a large increase in intrinsic fluorescence of ARF occurs upon exchange of GDP for GTP. All measurements were performed in PBS (137 mM NaCl, 2.7 mM KCl, 10.2 mM Na2HPO4, 1.8 mM KH2PO4) pH 7.4, 3 mM MgCl2 at 37° C.
[Δ17]ARF1 (1 μM) in PBS without MgCl2 was preincubated with 80 μM GDP in the presence of 2 mM ethylenediaminetetraacetic acid (EDTA) for 15 minutes. The bound GDP was stabilized by addition of MgCl2 at a final concentration of 3 mM and incubation for 5 minutes. For each exchange reaction 250 nM [Δ17]ARF1 was mixed with 10 nM ARNO-Sec7 (total volume 200 μl) in the absence or presence of the phenyl diamides according to formulas (5) to (18). The reaction was started by injection of 50 μM GTP.
The tryptophan fluorescence was measured at excitation and emission wavelength of 280 nm and 340 nm respectively. All fluorescent measurements were performed with a Varioskan microplate reader (Thermo Scientific), in 96-well plates. For analysis all data were fitted by linear regression.
The relative exchange rate was determined by comparing the initial linear rise of the fluorescence signal (exchange rate) in the presence of 2.5 μM of the phenyl diamides according to formulas (5) to (18) with the exchange rate in the presence of the solvent Dimethyl sulfoxide (DMSO), 0.4% end concentration, only. A further control was performed with the control compound according to formula (XH1009) as indicated below: […]
Further, the IC50 value of the inhibition of the sec7-domain of the isolated cytohesin-2 was determined. The IC50 value was determined by plotting the initial linear rise of the fluorescence signal against the added concentrations of the amide. The IC50 value corresponds to the concentration of the phenyl diamides at which the activity of the protein is reduced to half. The lower the IC50 value, the more strongly the phenyl diamide inhibits the sec7-domain.

Assay [2] has as its system U87 wt. Put plainly: glioblastoma proliferation assay (MTT), U87 wt. Format: cell-based. The settings on record: Homo sapiens, U87WT, 72 hours, at least 3 times, read-out: IC50 values of the inhibition of the proliferation in the cell line U87 wt. The method, then:
The effect of the phenyl diamides according to formulas (5) to (18) on the proliferation of Glioblastoma cells was tested in two pairs of established human glioblastoma cell lines, Gli36 and U87. Human Gli36 wt, U87 wt and U87 EGFRvIII cells were a gift from Prof. Dr. Andreas H. Jacobs, European Institute for Molecular Imaging, Munster, Germany. The cells were maintained in DMEM (PAA) supplemented with 10% fetal calf serum (FCS, Lonza), 1% Penicillin/Streptomycin (PAA) and 110 μg/ml Sodiumpyruvat (Sigma-Aldrich) and were grown at 37° C., 5% CO2.
3000 cells per 96 well were seeded into a clear, flat bottom 96 well plate (TPP). After 24 hours the cells were washed twice in 1×DPBS (PAA) and treated with 250 nM of the phenyl diamides according to formulas (5) to (18) in DMEM (PAA) supplemented with 1% FCS (Lonza), 1% Penicillin/Streptomycin (PAA) and 110 μg/ml Sodiumpyruvat (Sigma-Aldrich). Controls were treated with Dimethyl sulfoxide (DMSO) as solvent in an end concentration of 0.4% (v/v). A further control was performed with the control compound according to formula (XH1009). Medium was changed daily.
(§1) After 72 hours cell proliferation was quantified by using a commercially available 3-(4,5-dimethylthiazol-2-yl)-2,5diphenyltetrazolium bromide (MTT) assay (Cell Titer 96® Non-Radioactive Cell Proliferation Assay, Promega) as described in the manufacture's protocol. Briefly, 15 μl of Dye solution was added directly into the 100 μl media of the cells. After 4 hours incubation at 37° C., 5% CO2, 100 μl solubilization solution was added to solubilize the formazan product and the absorbance at 570 nm was measured in a Varioscan microplate reader (Thermo Scientific). All assays were performed at least in triplicates. For calculation of the relative proliferation rate/cell number the mean absorbance in the solvent DMSO only treated cells was set as 1. Results are given as the mean+/−standard error.
The FIGS. 2 and 3 show the relative cell numbers in the wild type glioblastoma cell line U87 wt (FIG. 2) and Gli36 wt (FIG. 3) normalized to the DSMO treated control after 72 h incubation with the respective phenyl diamides according to formulas (5) to (18), the DSMO treated control compound determined with a MTT proliferation essay. Data were normalized with the exchange in the solvent (DMSO) only control set as 1 and represent the mean values of duplicates, error bars correspond to standard error of the mean (SEM).
(§2) U87 wt and U87 EGFRvIII cells were a gift from Prof. Dr. Andreas H. Jacobs, European Institute for Molecular Imaging, Münster, Germany. The cells were maintained in DMEM (PAA) supplemented with 1% FCS (Lonza), 1% Penicillin/Streptomycin (PAA) and 110 μg/ml Sodiumpyruvat (Sigma-Aldrich) and were grown at 37° C., 5% CO2.
(§3) 300 cells per 96 well were seeded into a clear, flat bottom 96 well plate (TPP). After 24 hours the cells were washed twice in 1×DPBS (PAA) and treated with concentrations ranging from 2.5 nM to 2 μM of the phenyl diamides according to formulas (5) to (18) or 5 μM of the control compound (XH1009) in DMEM (PAA) supplemented with 1% FCS (Lonza), 1% Penicillin/Streptomycin (PAA) and 110 μg/ml Sodiumpyruvat (Sigma-Aldrich). Controls were treated with Dimethyl sulfoxide (DMSO) as solvent in an end concentration of 0.4% (v/v). Medium was changed daily.
(§4) Further, the IC50 values of the inhibition of the proliferation was determined. The IC50 value was determined by plotting the relative cell number against the added concentrations of the amide. The IC50 value corresponds to the concentration of the phenyl diamides at which the proliferation is reduced to half. The lower the IC50 value, the more strongly the phenyl diamide inhibits proliferation.

For assay [3], the system named is U87 EGFRvIII. Put plainly: glioblastoma proliferation assay (MTT), U87 EGFRvIII; selectivity of the inhibition. Format: cell-based, human. The settings on record: Homo sapiens; U87 EGFRvIII, 72 hours, MTT, at least 3 times; read-out: IC50 values of the inhibition of the proliferation in the cell line U87 EGFRvIII. The method, then:
as §2, §3, §1, §4

Assay [4] has as its system glioblastoma cells. In words: glioblastoma cell proliferation, cell line not stated (summary statements). In kind it is cell-based. The settings on record: read-out: IC50 for the proliferation inhibition.

The structures appear in SMILES notation.

On to `CC(C)(C)c1ccc(C(=O)Nc2ccc(NC(=O)c3ccc4c(c3)OCCO4)cc2)cc1` [formula (18)], for which the IC50 is 1340 nM in assay [1], 297 nM in assay [2], 105 nM in assay [3] and less than 2000 nM in assay [4].
